The values below are quoted from earlier work in US20070259820A1, “METHODS AND REAGENTS FOR ACTIVATING HEAT SHOCK PROTEIN 70” (THE REGENTS OF THE UNIVERSITY OF MICHIGAN, priority 2006, published 2007).

Data set [1] relates to Hsp70. Conditions: prior-art statement in background.
Data set [2] concerns Hsp70. The conditions noted are these: prior-art statement in background. The source holds these as a separate data set.

Consider `N=C(N)NCCCCCCC(=O)NC(O)C(=O)NCCCCNCCCN` (centres unmarked) [15-deoxyspergualin], for which the “effect on Hsp70's ATPase activity” value in the data set with Hsp70 [1] is given as “stimulate Hsp70's ATPase activity”. On to `NCCCNCCCCNC(=O)[C@H](O)NC(=O)C[C@@H](O)CCCCN=C(N)N` [spergaulin], for which the “binding to Hsp70 in "pull-down" studies” value with Hsp70 [2] was “bind Hsp70”.
